Earlier results in US20220125792A1, “USE OF COMPOSITION CONTAINING CDK4/6 INHIBITOR IN COMBINATION WITH ANASTROZOLE IN PREPARATION OF MEDICAMENT FOR TREATING TUMOR DISEASES” (Jiangsu Hengrui Medicine Co., Ltd., priority 2019, published 2022).

Legend:
[1] = system: systemic aromatization and plasma estrogen level; settings: letrozole 2.5 mg once a day, postmenopausal women with metastatic breast cancer
[2] = system: advanced breast cancer

Structure (SMILES): N#Cc1ccc(C(c2ccc(C#N)cc2)n2cncn2)cc1 [letrozole]
- inhibition of systemic aromatization and plasma estrogen level, compared with anastrozole (1 mg daily) [1]: more effective systemic aromatization and plasma estrogen level inhibitor than anastrozole
- total remission rate (ORR), letrozole versus anastrozole ([2]; European Journal of Cancer 39 (2003) 2318-2327): significantly superior to anastrozole
- response of advanced breast cancer, second-line hormonal therapy, letrozole versus anastrozole ([2]; open randomized trial): responded more strongly to letrozole than to anastrozole
